Test results published in PubChem BioAssay AID1259407 (Chemical Carcinogenesis Research Information System (CCRIS), 2018).
The source made the active and inactive calls. How the calls were made is not given here.

Tested on: CCRIS mutagenicity, Ames/micronucleus/aberration tests
Assay: CCRIS mutagenicity studies
Conditions: Metabolic Activation: NONE

Structure (SMILES) | mutagenic call (Test System: AMES SALMONELLA TYPHIMURIUM, Strain/Indicator: TA92, Method: STANDARD PLATE) | mutagenic call (Test System: AMES SALMONELLA TYPHIMURIUM, Strain/Indicator: TA98, Method: STANDARD PLATE) | mutagenic call (Test System: AMES SALMONELLA TYPHIMURIUM, Strain/Indicator: TA100, Method: STANDARD PLATE) | mutagenic call (Test System: AMES SALMONELLA TYPHIMURIUM, Strain/Indicator: TA2410, Method: STANDARD PLATE) | mutagenic call (Test System: HUMAN H1A1V2 CELLS, Strain/Indicator: TK LOCUS, Method: SUSPENSION/PLATE)
C=CCc1[c-]cccc1.C=CCc1[c-]cccc1.[Pt+2] | inactive; negative | inactive; negative | inactive; negative | inactive; negative | 
c1ccc2cc3c(cc2c1)cc1ccc2cccc4ccc3c1c24 |  |  |  |  | active; positive
